Source: a melting point compilation (Tetko et al.; mined from patent text by program, amines drawn as free bases though some values may be those of a salt)

Row | SMILES | melting point
1 | CN1CCN(c2cccc3c2C[C@H](NC(=O)c2ccc(N4CCN(CCO)CC4)cc2)CO3)CC1 | 211 to 212 °C
2 | Cc1noc(C2CN3CCC2CC3)n1 (configuration not stated) | 112 to 115 °C
3 | CCc1nc(-c2ccc(OC)cc2)c(-c2cccnc2)s1 | 59 to 60 °C
4 | Cn1cc(C2=C(c3cn(CCCSC4=NCCS4)c4ccccc34)C(=O)NC2=O)c2ccccc21 | 170 to 173 °C
5 | CCCCC(CC)COc1ccc2c(-c3ccc(CO)cc3)c3cc(OCC(CC)CCCC)ccc3c(-c3ccc(CO)cc3)c2c1 (configuration not stated) | 110 to 112 °C
6 | CN1CCc2c(Cl)ccc3c4c(n(c23)CC1)CCCCC4 | 132 to 134 °C
7 | CC1=Nc2c3c(C)cnc-3ccn2C1 | 211 °C
8 | CC(C)OC(=O)C(O)C(CC1CCCCC1)NC(=O)C(Cc1c[nH]cn1)NC(=O)C(CC(=O)N1CCOCC1)Cc1cccc2ccccc12 (mixture of isomers) | 103 to 106 °C
9 | COc1cc(-c2nc(N3CCN(C(C)=O)CC3)c3c(C)c(C#N)sc3n2)cc(OC)c1OC | 211 to 213 °C
10 | C=CCCCn1c(=O)sc2c(=O)[nH]c(N)nc21 | 240 to 243 °C
11 | Oc1ccc2sc(C=C3C4CC5CC(C4)CC3C5)nc2c1 | 156 to 158 °C
12 | CCCC1CCC(c2ccc(-c3cc(F)c(C(F)(F)Oc4cc(F)c(C(F)(F)F)c(F)c4)c(F)c3)c(F)c2)CC1 (configuration not stated) | 86 °C
13 | O=C(Nc1ccc(S(=O)(=O)c2ccncc2)cc1)C(O)(C(F)(F)F)C(F)(F)F | 235 to 237 °C
14 | CCOC(=O)c1csc(-c2cccs2)n1 | 72 to 73 °C
15 | COCCOc1ccc(OCC(O)CNCCNC(=O)N2CCOCC2)cc1 (configuration not stated) | 69 °C
16 | COc1ncc(-c2cc(NC(=O)c3csc(CN4C[C@@H](C)O[C@@H](C)C4)n3)c3cn[nH]c3c2)cc1NS(=O)(=O)c1ccc(F)cc1F | 211 to 212 °C
17 | C=CCOC(=O)NC(C)(C)c1ccc(-c2nc(Nc3ccc(CCn4ccnc4)cc3)ncc2Cl)cc1 | 72 to 78 °C

Row | SMILES | melting point
18 | CCS(=O)(=O)Nc1cc(C)cc(Cc2c[nH]cn2)c1C | 167 to 169 °C
19 | O=P(Oc1ccccc1O)(Oc1ccccc1O)c1ccccc1 | 270 °C
20 | COC1CCC2C3CCC4=CC(=O)C(C)CC4(C)C3CCC12C (configuration not stated) | 130 to 145 °C
21 | CC1(C)[C@H](C(=O)O)[C@@H]1C=C1CCSC1=O | 162 °C
22 | CCCCn1nc(-c2ccc(F)cc2)c(-c2ccc(S(C)(=O)=O)cc2)cc1=O | 111 to 113 °C
23 | CS(=O)(=O)c1ccc(Oc2ccc(OC(F)(F)C(Cl)Cl)cc2)cc1 | 67 to 70 °C
24 | O=C(c1ccc2nonc2c1)N(CC(F)(F)F)C1CCOCC1 | 134 to 135 °C
25 | Cc1cccc(P(c2cccs2)c2cccs2)c1-c1c(C)cccc1P(c1cccs1)c1cccs1 | 177 to 178 °C
26 | CC(CCCC(C(=O)O)C(=O)O)C1CC=C2C3=C(CCC21C)C1(C)CCC(O)C(C)(C)C1CC3 (configuration not stated) | 188 to 190 °C
27 | CC(C)(C)c1ccc(-c2nc(COCCc3cccc(NS(=O)(=O)C(F)(F)F)c3)cs2)cc1 | 110 to 112 °C
28 | O=C1Cc2cc3c(cc2C(c2ccc([N+](=O)[O-])cc2)=NN1)OCO3 | 293 to 295 °C
29 | N#Cc1ccc(-c2ccc(-c3nc4cc(C#N)ccc4[nH]3)cc2)nc1 | 346 to 347 °C
30 | CC(C)(C)C12COC(CCCCBr)(OC1)OC2 | 111 to 115 °C
31 | CCCCCc1c(C=O)sc2cc(OC)ccc12 | 44 to 46 °C
32 | CCCCCCC1CCC(c2ccc(C(=O)CC(C)=O)cc2)CC1 (configuration not stated) | 74 °C
33 | COc1nc(C)c(N2CCCn3c2nc2c(OC)ccc(C(OC(F)F)C(F)(F)F)c23)c(C)n1 (configuration not stated) | 201 to 203 °C

Other lines, results leading:

Row | melting point | SMILES
34 | 115 to 116 °C | COCCNC(=O)c1cccc(-c2cccc3c(F)c(Cc4cccc(C(F)(F)F)c4)sc23)c1
35 | 48 to 51 °C | O=P1(c2cccc(C(F)(F)F)c2)c2ccccc2CN1c1ccccc1 (configuration not stated)
36 | 103 to 106 °C | CC1Cc2cc(-n3ccnc3)ccc2C1=O (configuration not stated)
37 | 118 °C | COc1ccc(F)c(/C=C/CN2C(=O)c3ccccc3C2=O)c1
38 | 180 to 182 °C | O=[N+]([O-])c1ccc(Oc2cccc(Oc3ccc([N+](=O)[O-])c(O)c3)c2)cc1O
39 | 137 to 138 °C | Cc1cc(C)c(/C=C/[C@H]2C[C@H](O)CC(=O)O2)c(-c2ccc(F)c(CO)c2)c1 (relative stereo)
40 | 164 to 167 °C | O=C(c1ccc(Cl)cn1)c1ccc(Cl)cn1
41 | 110 to 111 °C | Cc1cc(Cl)c2cc(F)c(OCc3ccccc3)cc2n1
42 | 108 to 110 °C | O=C1NC(=O)C(c2cn3c4c(cccc24)CCC3)C1c1cccc(O)c1 (configuration not stated)
43 | 265 °C | Cc1c(C(=O)Nc2cccc(C#N)c2N2CCC(N3CCOCC3)CC2)cnn1-c1ccc([N+](=O)[O-])cc1
44 | 57 to 59 °C | O=C(Nc1nccs1)/C(=C/C1CCCC1)c1ccc(Cl)c(Cl)c1
45 | 157 to 158 °C | CCOC(=O)C(C)Oc1ccc(C(=O)Nc2ccccc2Sc2ccccc2-c2nnn[nH]2)cc1 (configuration not stated)
46 | 154 to 155 °C | Cc1nn(CC(=O)COCc2ccccc2)c(-c2ccc(F)cc2)c1-c1ccc2c(c1)NC(=O)CO2
47 | 120 to 122 °C | CC1=C(C(=O)OCCN(C)Cc2ccccc2)C(c2ccccc2C#N)c2c(ccnc2OC(C)C)N1 (configuration not stated)
48 | 123 to 127 °C | COc1ccc2c(c1)C(=O)N(c1ccc3c(c1)CCCN3C)C2
49 | 116 to 119 °C | COC(=O)c1cc2c(Sc3ccc(C)cc3)cncc2s1
50 | 278 to 281 °C | O=C(NCc1ccc2c(c1)-c1[nH]nc(-c3ccsc3)c1C2)c1ccncc1

Row | melting point | SMILES
51 | 127 to 128 °C | O=c1c(Cl)c(N2CCOCC2)oc2ccccc12
52 | 143 to 145 °C | COCCOC(=O)c1ccc(C)c(-n2c(C)cc(OCc3ccccc3CNC(=O)Nc3cc(C(C)(C)C)nn3-c3cccc(OCCO)c3)c(Cl)c2=O)c1
53 | 180 to 182 °C | CNc1ncnc2c1nnn2Cc1ccccc1F
54 | 176 to 178 °C | CCOC(=O)c1c(Cn2cncn2)nc2cc(OC)c(OC)cc2c1-c1ccc(O)c(OC)c1
55 | 192 to 194 °C | Cc1cc(C(=O)Nc2ccccc2O)cc(Cl)c1O
56 | 218 °C | Cn1c(C(=O)NN2CCCCC2)cc(-c2ccc(Cl)cc2Cl)c1-c1ccc(Cl)cc1
57 | 170 to 175 °C | CC(=O)NC[C@H]1CN(c2ccc3c(c2)CC(C)N3C(=O)OCc2ccccc2)C(=O)O1 (some centres not stated)
58 | 132 to 133 °C | COc1ccc(CCNc2nc(Cl)ccc2[N+](=O)[O-])cc1OC
59 | 54 to 56 °C | CC(=O)OCC(=O)c1ccc(F)cc1F
60 | 210 to 212 °C | CCOC(=O)c1cn(NCC=O)c2nc(C)ccc2c1=O
61 | 102 to 106 °C | Cn1c2ccccc2c2cc(CN3CCOCC3)sc21
62 | 218 to 220 °C | CNc1nc(-c2cccc(-c3cnc4ccccc4c3)c2)c2cc(OC)c(OC)cc2n1
63 | 164 to 166 °C | CCCc1ccccc1OCC(O)COc1ccc2oc(C(=O)O)cc(=O)c2c1 (configuration not stated)
64 | 140 °C | COCCOc1ccc(CCNC(=O)/C=C/c2cccs2)cc1S(N)(=O)=O
65 | 175 to 176 °C | Cc1ccc(F)cc1C(C)(C)CC(O)(Cn1ccc(=O)c2sccc21)C(F)(F)F (configuration not stated)
66 | 175 to 177 °C | NCCCCn1c(-c2ccccc2)nc2c(N)nc3ccccc3c21
67 | 98 to 99 °C | Cc1cc(C(=O)C(C)N2CCC(O)(c3ccccc3)CC2)ccc1OCc1ccccc1 (configuration not stated)
